From patent US12721809B2, “Formulation for treating ophthalmic conditions” (Guangzhou KangRui Biological Pharmaceutical Technology Co., …, priority 2021, dated 2026)
Values after ≈ are worked out from the molar mass of the structure shown. Values joined by “and” are separate entries in the source; they are usually repeats but may differ in a detail not shown here. Equal entries are not always repeated.

How the values were obtained:
Format in all cases: physicochemical
[1] = Particle size of KDR2-2 API before and after pulverization (Malvern); conditions: for Particle size Dv (10) / Particle size Dv (50) / Particle size Dv (90): dry method (Mastersizer 3000); for D10 (μm) / D50 (μm) / D90 (μm): listed as KDR2-2 API
Description: Particle sizes: KDR2-2 is a poorly soluble drug with large particle sizes. The drug substance should be micronized to meet the quality standards of KDR2-2 Suspension Eye Drop. The result of microscopic observation of KDR2-2 (Batch #CK0120554-02-03P-01-32-01) in 1% Kolliphor® HS 15 is shown in FIG. 1, and the particle sizes of KDR2-2 (Batch #CK0120554-02-03P-01-32-01) in 1% Kolliphor® HS 15 were measured by malvern and is presented in Table 4.
(§1) The drug particle size for suspension eye drops should be reduced to level <10 μm in an attempt to avoid excessive lacrimation, the micronization process of drug substance was studied. The micronization process parameters of the jet are: injection pressure is 5 bar; crushing pressure is 3 bar. The particle size and distribution of the KDR2-2 API were measured before and after pulverization, to determine whether the API satisfies the formulation requirements after pulverization.
as §1, with “studied. Certain amount of KDR2-2 API was taken and fed into a jet mill.” for “studied.”, “bar; the media for micronization is air.” for “bar.”, “was” for “were”, “pulverization using the dry method (Mastersizer 3000, Malvern),” for “pulverization,”

[2] = Solubility of KDR2-2 in different media
[3] = API content/purity by liquid chromatography before and after pulverization; conditions: for HPLC peak (percentage of peak area), Impurity 1: Impurity 1 = Intermediate A; for HPLC peak (percentage of peak area), Impurity 2: Impurity 2 = Intermediate B
Description: API content was determined by liquid chromatography, Diamonsil® plus-C18 column (4.6×150 mm, […]), mobile phase: acetonitrile (with 0.2‰ trifluoroacetic acid):water (with 0.2‰ trifluoroacetic acid), acetonitrile gradient 5-95%, time: 17 min, column temperature 20° C., detection wavelength 254 nm. The results are shown as follows and in FIGS. 5A-5B: […]

[4] = KDR2-2 API after micronization (jet mill)
[5] = KDR2-2 API before micronization
[6] = after pulverization (jet mill, 5 bar/3 bar)
[7] = before pulverization, in 1% Kolliphor® HS 15, batch CK0120554-02-03P-01-32-01

**Q.** Which results are given for `Nc1nccc(Oc2ccc3c(C(=O)Nc4cccc(C(F)(F)F)c4)cccc3n2)n1` [KDR2-2, 2-(2-Aminopyrimidin-4-yloxy)-N-(3-(trifluoromethyl)phenyl)quinoline-5-carboxamide]?
**A.** Particle size Dv (10) [1, 4]: 0.304 μm; Particle size Dv (50) [1, 4]: 1.75 μm; Particle size Dv (90) [1, 4]: 3.83 μm; Particle size Dv (10) [1, 5]: 2.33 μm; Particle size Dv (50) [1, 5]: 10.5 μm; Particle size Dv (90) [1, 5]: 472 μm; D10 (μm) [1, 6]: 0.957 μm and 0.949 μm and 0.946 μm; D50 (μm) [1, 6]: 3.55 μm and 3.46 μm and 3.41 μm; D90 (μm) [1, 6]: 8.03 μm and 7.59 μm and 7.47 μm; D10 (μm) [1, 7]: 55.9 μm and 33.0 μm and 45.5 μm; D50 (μm) [1, 7]: 162 μm and 105 μm and 138 μm; D90 (μm) [1, 7]: 375 μm and 292 μm and 353 μm; solubility ([2]; acetone, organic solvent or mixture): 7700 to 11500 µg/mL (≈ 18.1 to 27 mM); solubility ([2]; acetone/water, aqueous with cosolvent or surfactant or cyclodextrin): 7300 to 11000 µg/mL (≈ 17.2 to 25.9 mM); solubility ([2]; acetonitrile, organic solvent or mixture): 1700 to 1900 µg/mL (≈ 4 to 4.47 mM); solubility ([2]; chloroform, organic solvent or mixture): < 1100 µg/mL; solubility ([2]; dimethylsulfoxide, organic solvent or mixture): > 28000 µg/mL; solubility ([2]; ethanol, organic solvent or mixture): 2400 to 2700 µg/mL (≈ 5.64 to 6.35 mM); solubility ([2]; ethyl acetate, organic solvent or mixture): 3800 to 4600 µg/mL (≈ 8.93 to 10.8 mM); solubility ([2]; iso-propyl alcohol, organic solvent or mixture): < 1100 µg/mL; solubility ([2]; methanol, organic solvent or mixture): 6300 to 9500 µg/mL (≈ 14.8 to 22.3 mM); solubility ([2]; methyl isobutyl ketone, organic solvent or mixture): 1800 to 2200 µg/mL (≈ 4.23 to 5.17 mM); solubility ([2]; methyl tert-butyl ether, organic solvent or mixture): < 1200 µg/mL; solubility ([2]; tetrahydrofuran, organic solvent or mixture): > 18000 µg/mL; solubility ([2]; toluene, organic solvent or mixture): < 900 µg/mL; solubility ([2]; water): < 1100 µg/mL; HPLC peak (percentage of peak area), KDR2-2 ([3]; KDR2-2 API after micronization): Peak area % = 99.839%; HPLC peak (percentage of peak area), Impurity 1 ([3]; KDR2-2 API after micronization): Peak area % = 0.085%; HPLC peak (percentage of peak area), Impurity 2 ([3]; KDR2-2 API after micronization): Peak area % = 0.075%; HPLC peak (percentage of peak area), KDR2-2 [3, 5]: Peak area % = 99.820%; HPLC peak (percentage of peak area), Impurity 1 [3, 5]: Peak area % = 0.08%; HPLC peak (percentage of peak area), Impurity 2 [3, 5]: Peak area % = 0.101%
